Laboratory results reported in the NIST ThermoML archive (doi:10.1021/acs.jced.9b00752).
Numbers after ± are expanded uncertainties.

Assay: mn = molality of the nth substance listed, in mol/kg
Details: 100 kPa, Liquid, Vibrating tube method

O=C(O)[C@@H]1CCCN1 [L-proline] + O
mass density [kg/m3]
Details | 273.65 K | 274.15 K | 274.65 K | 275.15 K | 275.65 K | 276.15 K | 276.65 K | 277.15 K | 277.65 K | 278.15 K
m1 = 0.0132 | 1000.34 ± 0.11 | 1000.37 ± 0.11 | 1000.39 ± 0.11 | 1000.4 ± 0.11 | 1000.41 ± 0.11 | 1000.42 ± 0.11 | 1000.43 ± 0.11 | 1000.43 ± 0.11 | 1000.43 ± 0.11 | 1000.42 ± 0.11
m1 = 0.0326 | 1001.02 ± 0.11 | 1001.05 ± 0.11 | 1001.07 ± 0.11 | 1001.08 ± 0.11 | 1001.09 ± 0.11 | 1001.1 ± 0.11 | 1001.11 ± 0.11 | 1001.11 ± 0.11 | 1001.1 ± 0.11 | 1001.09 ± 0.11
m1 = 0.0542 | 1001.77 ± 0.11 | 1001.79 ± 0.11 | 1001.81 ± 0.11 | 1001.82 ± 0.11 | 1001.84 ± 0.11 | 1001.84 ± 0.11 | 1001.84 ± 0.11 | 1001.85 ± 0.11 | 1001.84 ± 0.11 | 1001.83 ± 0.11
m1 = 0.0692 | 1002.29 ± 0.11 | 1002.31 ± 0.11 | 1002.32 ± 0.11 | 1002.34 ± 0.11 | 1002.34 ± 0.11 | 1002.35 ± 0.11 | 1002.35 ± 0.11 | 1002.35 ± 0.11 | 1002.34 ± 0.11 | 1002.33 ± 0.11
m1 = 0.0808 | 1002.69 ± 0.11 | 1002.71 ± 0.11 | 1002.73 ± 0.11 | 1002.74 ± 0.11 | 1002.75 ± 0.11 | 1002.75 ± 0.11 | 1002.75 ± 0.11 | 1002.75 ± 0.11 | 1002.74 ± 0.11 | 1002.73 ± 0.11
m1 = 0.1014 | 1003.41 ± 0.11 | 1003.43 ± 0.11 | 1003.45 ± 0.11 | 1003.46 ± 0.11 | 1003.46 ± 0.11 | 1003.46 ± 0.11 | 1003.46 ± 0.11 | 1003.46 ± 0.11 | 1003.45 ± 0.11 | 1003.43 ± 0.11
m1 = 0.1196 | 1004.09 ± 0.11 | 1004.11 ± 0.11 | 1004.12 ± 0.11 | 1004.13 ± 0.11 | 1004.13 ± 0.11 | 1004.13 ± 0.11 | 1004.13 ± 0.11 | 1004.13 ± 0.11 | 1004.12 ± 0.11 | 1004.1 ± 0.11
m1 = 0.1326 | 1004.5 ± 0.11 | 1004.52 ± 0.11 | 1004.53 ± 0.11 | 1004.54 ± 0.11 | 1004.54 ± 0.11 | 1004.54 ± 0.11 | 1004.54 ± 0.11 | 1004.54 ± 0.11 | 1004.52 ± 0.11 | 1004.51 ± 0.11
m1 = 0.1555 | 1005.27 ± 0.15 | 1005.29 ± 0.15 | 1005.3 ± 0.15 | 1005.3 ± 0.15 | 1005.3 ± 0.15 | 1005.3 ± 0.15 | 1005.3 ± 0.15 | 1005.29 ± 0.15 | 1005.28 ± 0.15 | 1005.26 ± 0.15
m1 = 0.1568 | 1005.41 ± 0.15 | 1005.42 ± 0.15 | 1005.43 ± 0.15 | 1005.44 ± 0.15 | 1005.44 ± 0.15 | 1005.44 ± 0.15 | 1005.43 ± 0.15 | 1005.43 ± 0.15 | 1005.41 ± 0.15 | 1005.39 ± 0.15
m1 = 0.1835 | 1006.23 ± 0.11 | 1006.25 ± 0.11 | 1006.25 ± 0.11 | 1006.26 ± 0.11 | 1006.26 ± 0.11 | 1006.25 ± 0.11 | 1006.25 ± 0.11 | 1006.24 ± 0.11 | 1006.22 ± 0.11 | 1006.2 ± 0.11
m1 = 0.2076 | 1007.04 ± 0.11 | 1007.05 ± 0.11 | 1007.05 ± 0.11 | 1007.05 ± 0.11 | 1007.05 ± 0.11 | 1007.04 ± 0.11 | 1007.04 ± 0.11 | 1007.03 ± 0.11 | 1007.01 ± 0.11 | 1006.99 ± 0.11
m1 = 0.2212 | 1007.72 ± 0.12 | 1007.73 ± 0.12 | 1007.73 ± 0.12 | 1007.73 ± 0.12 | 1007.72 ± 0.12 | 1007.72 ± 0.12 | 1007.71 ± 0.12 | 1007.7 ± 0.12 | 1007.68 ± 0.12 | 1007.66 ± 0.12
